This note sets out measurements from article PMC10052977, “α,ω-Diacyl-Substituted Analogues of Natural and Unnatural Polyamines: Identification of Potent Bactericides That Selectively Target Bacterial Membranes” (International Journal of Molecular Sciences, 2023).

Data set [1] deals with Staphylococcus aureus ATCC 25923 or ATCC 29213. The experiment in a line: MIC, broth dilution (CA-SFM). The class given is cell-based. To be noted: Staphylococcus aureus ATCC 25923 or ATCC 29213; mean (n = 3); read-out: MIC S. a.
Another data set deals with MRSA ATCC 43300. The data set can be described thus: MIC, CO-ADD broth microdilution. The class given is cell-based, Staphylococcus aureus. The note with it: Staphylococcus aureus; MRSA ATCC 43300; mean (n = 2); read-out: MIC MRSA. (In general: In broth dilution the organism is exposed to a series of concentrations in liquid medium.)
For data set [2], the system named is Escherichia coli ATCC 25922. The data set can be described thus: MIC, CO-ADD broth microdilution. The class given is cell-based. The note with it: ATCC25922, mean (n = 2).
Data set [3] concerns Pseudomonas aeruginosa PAO1 or ATCC 27853. The data set can be described thus: MIC, broth dilution (CA-SFM). To be noted: mean (n = 3). The class given is cell-based.
For data set [4], the system named is Klebsiella pneumoniae ATCC700603. The data set can be described thus: MIC, CO-ADD broth microdilution. The class given is cell-based. To be noted: mean (n = 2).
Data set [5] deals with Acinetobacter baumannii ATCC19606. The data set can be described thus: MIC, CO-ADD broth microdilution. Type of data set: cell-based. To be noted: mean (n = 2).
Data set [6] concerns Candida albicans ATCC90028. The data set can be described thus: Antifungal MIC, CO-ADD. The class given is cell-based. To be noted: mean (n = 2). As for the experimental part:
(§1) For the antifungal assay, fungi strains were cultured for 3 days on YPD agar at 30 °C. A yeast suspension of 1 × 10^6 to 5 × 10^6 CFU/mL was prepared from five colonies. These stock suspensions were diluted with yeast nitrogen base (YNB) (Becton Dickinson, 233520) broth to a final concentration of 2.5 × 10^3 CFU/mL. […] Plates were covered and incubated at 35 °C for 36 h without shaking. C. albicans MICs were determined by measuring the absorbance at OD530. […] Fluconazole was used as a positive fungal inhibitor standard for C. albicans and C. neoformans. […] Quality control (QC) of the assays was determined by antimicrobial controls and Z’-factor (using positive and negative controls).

In data set [7] the test system is Cryptococcus neoformans ATCC208821. The data set can be described thus: Antifungal MIC, CO-ADD. The class given is cell-based. As for the experimental part: as §1
Data set [8] can be described thus: Cytotoxicity assay (resazurin). The class given is cell-based, human. To be noted: human; HEK293 cells; mean (n = 2); highest dose tested 32 μg/mL; read-out: Cytotoxicity (concentration of compound at 50% cytotoxicity, IC50). A general note: Resazurin is reduced to fluorescent resorufin, in cell work by metabolically active cells.
In a further data set the test system is human red blood cells. The experiment in a line: Hemolytic assay. Type of data set: cell-based. The note with it: mean (n = 2). The method, then:
Human whole blood was washed three times with 3 volumes of 0.9% NaCl and then resuspended in same to a concentration of 0.5 × 10^8 cells/mL, as determined by manual cell count in a Neubauer hemocytometer. The washed cells were then added to the 384-well compound-containing plates for a final volume of 50 μL. After a 10 min shake on a plate shaker, the plates were then incubated for 1 h at 37 °C. After incubation, the plates were centrifuged at 1000× g for 10 min to pellet cells and debris; 25 μL of the supernatant was then transferred to a polystyrene 384-well assay plate. Hemolysis was determined by measuring the supernatant absorbance at […] (OD405). The absorbance was measured using a Tecan M1000 Pro monochromator plate reader. HC10 and HC50 (concentration at 10% and 50% hemolysis, respectively) were calculated by curve fitting the inhibition values vs. log (concentration) using a sigmoidal dose–response function with variable fitting values for top, bottom and slope.

Where [9] appears, read: ATCC208821, Cryptococcus neoformans ATCC208821, mean (n = 2).

The structures appear in SMILES notation. In brackets after ≈: the same amount, converted by molar mass.

By MIC is commonly meant the smallest concentration in the dilution series that meets the test's criterion for growth inhibition. As for `O=C(CC(c1ccccc1)(c1ccccc1)c1ccccc1)NCCCNCCCCCCNCCCNC(=O)CC(c1ccccc1)(c1ccccc1)c1ccccc1.O=C(O)C(F)(F)F.O=C(O)C(F)(F)F` [Compound 18b, N^1,N^6-Bis(3-(3,3,3-triphenylpropanamido)propyl)hexane-1,6-diaminium 2,2,2-trifluoroacetate], the MIC in data set [1] was 1.56 µM; in the data set on MRSA ATCC 43300, less than 0.24 µM; in [2], 0.97 µM; in data set [3], 50 µM; in [4], 31.2 µM; in data set [5], 7.8 µM. The MIC in data set [6] stood at 7.79 µM; in data set [7] (setting [9]), 31.2 µM. Further, in data set [8], the IC50 at 20 h came to 15.7 µM. The “Hemolysis (HC10, concentration at 10% hemolytic activity)” value with human red blood cells stood at 0.985 µM.
As to `O=C(CCC(=O)NCCC(c1ccccc1)c1ccccc1)NCCCNCCCCCCNCCCNC(=O)CCC(=O)NCCC(c1ccccc1)c1ccccc1` [Compound 16b, N^1,N^6-Bis(3-(4-((3,3-diphenylpropyl)amino)-4-oxobutanamido)propyl)hexane-1,6-diaminium 2,2,2-trifluroracetate], the MIC was 24 µM (≈ 19.6 µg/mL) in [1]; not above 0.24 µM with MRSA ATCC 43300; more than 30.6 µM in data set [2]; 480 µM (≈ 392 µg/mL) in data set [3]; more than 30.6 µM in [4]; more than 30.6 µM in data set [5]. Further, the MIC in data set [6] and in data set [7] (setting [9]) was more than 30.6 µM in each case. In addition, the IC50 at 20 h in data set [8] is more than 30.6 µM. Moreover, the “Hemolysis (HC10, concentration at 10% hemolytic activity)” value in the data set on human red blood cells is more than 30.6 µM.
For `O=C(NCCCNCCCCCCCCNCCCNC(=O)C(c1ccccc1)(c1ccccc1)c1ccccc1)C(c1ccccc1)(c1ccccc1)c1ccccc1.O=C(O)C(F)(F)F.O=C(O)C(F)(F)F` [Compound 17d, N^1,N^8-Bis(3-(2,2,2-triphenylacetamido)propyl)octane-1,8-diaminium 2,2,2-trifluoroacetate], the MIC in [1] is 6.25 µM; in the data set on MRSA ATCC 43300, less than 0.24 µM; in data set [2], 15.6 µM; in data set [3], 300 µM; in data set [4] it was more than 31.2 µM; in data set [5], 7.79 µM. The MIC in [6] is 15.6 µM; in data set [7] (setting [9]) it was less than 0.24 µM. Further, the IC50 at 20 h in [8] was not above 0.243 µM. In addition, in the data set on human red blood cells, the “Hemolysis (HC10, concentration at 10% hemolytic activity)” value came to 0.719 µM.
For `O=C(CCC(=O)NCCCc1ccccc1)NCCCNCCCCNCCCNC(=O)CCC(=O)NCCCc1ccccc1.O=C(O)C(F)(F)F.O=C(O)C(F)(F)F` [Compound 14a, N^1,N^4-Bis(3-(4-oxo-4-((3-phenylpropyl)amino)butanamido)propyl)butane-1,4-diaminium 2,2,2-trifluoroacetate], the MIC in data set [1] was 100 µM; in the data set with MRSA ATCC 43300, more than 37 µM; in [2] it was more than 37 µM; in data set [3], more than 200 µM; in [4], more than 37 µM; in data set [5] it was more than 37 µM. Moreover, the MIC in data set [6] and in [7] (setting [9]) was more than 37 µM throughout. Besides, in [8], the IC50 at 20 h is more than 37 µM. The “Hemolysis (HC10, concentration at 10% hemolytic activity)” value in the data set with human red blood cells is more than 37 µM.
For the compound `O=C(CCC(=O)NCCC(c1ccccc1)c1ccccc1)NCCCNCCCCCCCCNCCCNC(=O)CCC(=O)NCCC(c1ccccc1)c1ccccc1.O=C(O)C(F)(F)F.O=C(O)C(F)(F)F` [Compound 16d, N^1,N^8-Bis(3-(4-((3,3-diphenylpropyl)amino)-4-oxobutanamido)propyl)octane-1,8-diaminium 2,2,2-trifluoroacetate], the MIC in data set [1] was 12.5 µM; in the data set with MRSA ATCC 43300 it was not above 0.23 µM; in [2], more than 29.8 µM; in [3], 300 µM; in [4] it was more than 29.8 µM; in data set [5], more than 29.8 µM. The MIC in [6] and in [7] (setting [9]) was more than 29.8 µM in each case. The IC50 at 20 h in data set [8] was more than 29.8 µM. For the same compound, in the data set with human red blood cells, the “Hemolysis (HC10, concentration at 10% hemolytic activity)” value was more than 29.8 µM.
Turning to `O=C(CC(c1ccccc1)(c1ccccc1)c1ccccc1)NCCCNCCCCCCCCCCCCNCCCNC(=O)CC(c1ccccc1)(c1ccccc1)c1ccccc1.O=C(O)C(F)(F)F.O=C(O)C(F)(F)F` [Compound 18f, N^1,N^12-Bis(3-(3,3,3-triphenylpropanamido)propyl)dodecane-1,12-diaminium 2,2,2-trifluoroacetate], the MIC is 25 µM in data set [1]; less than 0.22 µM in the data set on MRSA ATCC 43300; more than 28.8 µM in data set [2]; 300 µM in data set [3]; more than 28.8 µM in data set [4]; more than 28.8 µM in data set [5]. Besides, the minimal inhibitory concentration (MIC) in data set [6] (36 h) is less than 0.23 µM; in data set [7] (ATCC208821, 36 h, Cryptococcus neoformans ATCC208821, mean (n = 2)), less than 0.23 µM. Besides, the IC50 at 20 h in [8] came out at 0.409 µM. Also, the “Hemolysis (HC10, concentration at 10% hemolytic activity)” value in the data set with human red blood cells was not above 0.225 µM.
Consider `O=C(CCc1ccccc1)NCCCNCCCCCCCNCCCNC(=O)CCc1ccccc1.O=C(O)C(F)(F)F.O=C(O)C(F)(F)F` [Compound 13c, N^1,N^7-Bis(3-(3-phenylpropanamido)propyl)heptane-1,7-diaminium 2,2,2-trifluoroacetate], for which the MIC in [1] is more than 271 µM; in the data set on MRSA ATCC 43300, more than 43.4 µM; in [2], more than 43.4 µM; in data set [3], more than 271 µM; in [4], more than 43.4 µM; in data set [5], more than 43.4 µM. For the same compound, the MIC in data set [6] and in [7] (setting [9]) was more than 43.4 µM throughout. In addition, the IC50 at 20 h in [8] was more than 43.4 µM. Moreover, in the data set on human red blood cells, the “Hemolysis (HC10, concentration at 10% hemolytic activity)” value is more than 43.4 µM.
For the compound `O=C(CC(c1ccccc1)c1ccccc1)NCCCNCCCCCCCCCCCCNCCCNC(=O)CC(c1ccccc1)c1ccccc1.O=C(O)C(F)(F)F.O=C(O)C(F)(F)F` [Compound 15f, N^1,N^12-Bis(3-(3,3-diphenylpropanamido)propyl)dodecane-1,12-diaminium 2,2,2-trifluoroacetate], the MIC is 1.56 µM in [1]; not above 0.26 µM in the data set on MRSA ATCC 43300; 2.1 µM in data set [2]; 200 µM in data set [3]; more than 33.4 µM in data set [4]; 1 µM in [5]. Besides, the MIC in [6] was 8.34 µM; in data set [7] (setting [9]) it was not above 0.28 µM. Besides, the IC50 at 20 h in data set [8] was 5.46 µM. For the same compound, in the data set with human red blood cells, the “Hemolysis (HC10, concentration at 10% hemolytic activity)” value came out at 1.17 µM.
`O=C(NCCCNCCCCCCCNCCCNC(=O)C(c1ccccc1)(c1ccccc1)c1ccccc1)C(c1ccccc1)(c1ccccc1)c1ccccc1.O=C(O)C(F)(F)F.O=C(O)C(F)(F)F` [Compound 17c, N^1,N^7-Bis(3-(2,2,2-triphenylacetamido)propyl)heptane-1,7-diaminium 2,2,2-trifluoroacetate]: the MIC in [1] is 12.5 µM; with MRSA ATCC 43300 it was less than 0.25 µM; in [2], 7.9 µM; in data set [3], 300 µM; in data set [4], 31.6 µM; in data set [5], 3.95 µM. Moreover, the MIC in [6] and in data set [7] (setting [9]) was 15.8 µM throughout. In addition, the IC50 at 20 h in data set [8] is not above 0.247 µM. In addition, in the data set with human red blood cells, the “Hemolysis (HC10, concentration at 10% hemolytic activity)” value was 8.16 µM.
As for `O=C(CCC(=O)NCCC(c1ccccc1)c1ccccc1)NCCCNCCCCCCCCCCCCNCCCNC(=O)CCC(=O)NCCC(c1ccccc1)c1ccccc1` [Compound 16f, N^1,N^12-Bis(3-(4-((3,3-diphenylpropyl)amino)-4-oxobutanamido)propyl)dodecane-1,12-diaminium 2,2,2-trifluroracetate], the MIC in data set [1] was 3.13 µM (≈ 2.82 µg/mL); with MRSA ATCC 43300 it was not above 0.22 µM; in [2], more than 28.3 µM; in data set [3], 300 µM (≈ 270 µg/mL); in data set [4], more than 28.3 µM; in data set [5], more than 28.3 µM. Besides, the MIC in data set [6] and in data set [7] (setting [9]) was more than 28.3 µM throughout. Also, the IC50 at 20 h in [8] is more than 28.3 µM. Besides, the “Hemolysis (HC10, concentration at 10% hemolytic activity)” value in the data set on human red blood cells was 3.17 µM.
